One may read the IC50 as the concentration that inhibits the measured activity by half. The low end stands for greater potency in that assay, the high end for weaker potency in that assay.

purified human, His-tagged PRC2 complex, sequence (O75530 whole entry): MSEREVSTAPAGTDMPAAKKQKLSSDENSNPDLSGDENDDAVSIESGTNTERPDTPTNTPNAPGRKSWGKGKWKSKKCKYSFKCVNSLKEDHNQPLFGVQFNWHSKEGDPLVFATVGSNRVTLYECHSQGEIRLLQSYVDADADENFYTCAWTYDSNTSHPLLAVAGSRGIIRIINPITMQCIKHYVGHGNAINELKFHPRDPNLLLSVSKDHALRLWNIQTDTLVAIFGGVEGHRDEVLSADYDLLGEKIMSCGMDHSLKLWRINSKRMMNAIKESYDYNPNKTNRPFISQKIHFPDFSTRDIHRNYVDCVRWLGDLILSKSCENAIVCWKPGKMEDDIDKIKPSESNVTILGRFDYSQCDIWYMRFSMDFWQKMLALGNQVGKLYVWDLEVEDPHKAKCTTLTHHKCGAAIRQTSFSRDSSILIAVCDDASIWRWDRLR
purified human, His-tagged PRC2 complex, sequence (Q15910 whole entry partner): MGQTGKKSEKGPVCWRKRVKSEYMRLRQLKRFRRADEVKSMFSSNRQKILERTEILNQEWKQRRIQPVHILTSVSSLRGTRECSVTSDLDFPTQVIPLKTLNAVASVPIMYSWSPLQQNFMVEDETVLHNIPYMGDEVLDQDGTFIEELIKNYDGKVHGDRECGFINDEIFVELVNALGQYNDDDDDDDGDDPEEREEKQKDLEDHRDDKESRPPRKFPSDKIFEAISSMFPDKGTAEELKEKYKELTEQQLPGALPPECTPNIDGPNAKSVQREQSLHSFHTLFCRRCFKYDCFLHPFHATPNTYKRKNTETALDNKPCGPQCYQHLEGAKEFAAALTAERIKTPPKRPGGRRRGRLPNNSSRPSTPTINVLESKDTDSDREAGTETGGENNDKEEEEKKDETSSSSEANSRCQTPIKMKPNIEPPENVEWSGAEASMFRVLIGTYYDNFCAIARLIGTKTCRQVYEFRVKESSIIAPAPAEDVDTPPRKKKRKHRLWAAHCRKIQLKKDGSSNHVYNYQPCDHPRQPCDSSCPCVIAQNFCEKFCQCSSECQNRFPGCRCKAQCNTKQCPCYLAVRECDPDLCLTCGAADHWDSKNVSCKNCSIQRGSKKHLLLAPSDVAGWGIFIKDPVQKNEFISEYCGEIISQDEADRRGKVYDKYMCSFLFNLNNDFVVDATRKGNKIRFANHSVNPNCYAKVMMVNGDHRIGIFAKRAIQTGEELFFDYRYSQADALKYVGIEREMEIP
purified human, His-tagged PRC2 complex, sequence (Q15022 whole entry partner): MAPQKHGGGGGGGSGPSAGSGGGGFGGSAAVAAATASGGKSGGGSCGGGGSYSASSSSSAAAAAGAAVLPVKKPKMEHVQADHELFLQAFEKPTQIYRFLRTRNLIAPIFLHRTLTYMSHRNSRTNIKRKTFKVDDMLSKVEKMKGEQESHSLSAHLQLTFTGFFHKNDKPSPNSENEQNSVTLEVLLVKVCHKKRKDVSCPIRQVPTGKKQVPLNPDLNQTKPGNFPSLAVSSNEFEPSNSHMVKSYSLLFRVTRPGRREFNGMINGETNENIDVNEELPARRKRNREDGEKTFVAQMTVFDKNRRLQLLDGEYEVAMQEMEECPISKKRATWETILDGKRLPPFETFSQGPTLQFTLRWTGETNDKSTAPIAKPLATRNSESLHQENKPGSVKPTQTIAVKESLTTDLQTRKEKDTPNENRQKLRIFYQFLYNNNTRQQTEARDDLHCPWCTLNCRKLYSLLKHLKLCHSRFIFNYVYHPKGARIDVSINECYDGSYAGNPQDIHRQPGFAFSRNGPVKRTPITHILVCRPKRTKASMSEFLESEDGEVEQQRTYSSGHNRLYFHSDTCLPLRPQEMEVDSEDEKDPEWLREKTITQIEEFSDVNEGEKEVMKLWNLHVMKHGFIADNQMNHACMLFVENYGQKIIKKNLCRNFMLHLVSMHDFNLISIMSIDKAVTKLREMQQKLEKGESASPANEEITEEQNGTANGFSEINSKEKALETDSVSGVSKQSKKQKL
purified human, His-tagged PRC2 complex, sequence (Q6ZN18 whole entry partner): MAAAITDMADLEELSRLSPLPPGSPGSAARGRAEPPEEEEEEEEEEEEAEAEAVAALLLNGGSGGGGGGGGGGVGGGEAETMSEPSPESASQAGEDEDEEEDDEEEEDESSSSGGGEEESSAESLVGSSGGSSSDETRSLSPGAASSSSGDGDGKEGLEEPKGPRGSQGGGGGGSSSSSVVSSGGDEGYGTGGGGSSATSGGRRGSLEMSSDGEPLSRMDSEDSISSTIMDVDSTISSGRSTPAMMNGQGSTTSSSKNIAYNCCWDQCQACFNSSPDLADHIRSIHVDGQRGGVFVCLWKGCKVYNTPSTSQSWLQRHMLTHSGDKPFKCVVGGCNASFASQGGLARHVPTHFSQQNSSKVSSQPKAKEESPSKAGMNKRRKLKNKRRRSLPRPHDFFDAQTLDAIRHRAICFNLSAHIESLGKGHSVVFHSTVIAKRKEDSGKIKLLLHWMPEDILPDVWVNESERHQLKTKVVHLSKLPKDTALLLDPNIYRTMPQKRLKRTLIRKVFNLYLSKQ
purified human, His-tagged PRC2 complex, sequence (Q09028 whole entry partner): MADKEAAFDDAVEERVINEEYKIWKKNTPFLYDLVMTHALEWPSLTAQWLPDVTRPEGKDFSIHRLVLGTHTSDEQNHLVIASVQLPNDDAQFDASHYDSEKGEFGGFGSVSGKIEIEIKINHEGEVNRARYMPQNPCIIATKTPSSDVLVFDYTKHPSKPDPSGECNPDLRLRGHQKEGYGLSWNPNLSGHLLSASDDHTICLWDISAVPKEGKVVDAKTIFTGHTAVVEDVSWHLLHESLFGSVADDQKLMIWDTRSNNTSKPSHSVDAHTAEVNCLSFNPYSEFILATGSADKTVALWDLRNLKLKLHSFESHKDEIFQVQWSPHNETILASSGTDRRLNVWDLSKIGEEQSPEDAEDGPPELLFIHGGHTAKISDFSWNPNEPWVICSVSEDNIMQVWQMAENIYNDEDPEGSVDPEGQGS

The assay addresses purified human, His-tagged PRC2 complex (Homo sapiens (Human), UniProt O75530). Nature of the assay: Hot Spot HMT assay, inhibition of PRC2 enzymatic activity. It counts as biochemical. The following applies: 10 nM PRC2 complex, 1 μM 3H-SAM, core histone H3, 10-point dose-response. Put shortly:
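Five-subunit PRC2 complex (EZH2, EED, SUZ12, AEBP2, RbAp48; 10 nM) preincubated 20 min at 30° C with compound (top 1.0 μM) and 0.05 mg/ml core histone H3 in Tris-HCl, 1% DMSO. Started with 1 μM [3H]SAM, 1 hr at 30° C; tritiated H3 measured by filter binding and scintillation.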
`Cc1ncccc1-c1cnc(NCc2c(F)ccc3occc23)n2cc(C(N)=O)nc12` [Example 12, 5-(((5-fluorobenzofuran-4-yl)methyl)amino)-8-(2-methylpyridin-3-yl)imidazo[1,2-c]pyrimidine-2-carboxamide]: the IC50 is under 100 nM.
The figure for `N#Cc1cn2c(NCc3c(F)ccc4c3CCO4)ncc(-c3ccc4c(c3)CCNC4=O)c2n1` [Example 172, 5-(((5-fluoro-2,3-dihydrobenzofuran-4-yl)methyl)amino)-8-(1-oxo-1,2,3,4-tetrahydroisoquinolin-6-yl)imidazo[1,2-c]pyrimidine-2-carbonitrile] is under 100 nM; for `CNC(=O)c1ccc(-c2cnc(NCc3c(F)ccc4c3CCO4)n3cc(C#N)nc23)cc1` [Example 186, 4-(2-cyano-5-(((5-fluoro-2,3-dihydrobenzofuran-4-yl)methyl)amino)imidazo[1,2-c]pyrimidin-8-yl)-N-methylbenzamide] it is under 100 nM.
In the case of `Cc1cn(-c2cnc(NCc3c(F)ccc4c3CCO4)n3cc(C(N)=O)nc23)cn1` [Example 17, 5-(((5-fluoro-2,3-dihydrobenzofuran-4-yl)methyl)amino)-8-(4-methyl-1H-imidazol-1-yl)imidazo[1,2-c]pyrimidine-2-carboxamide], the IC50 fell in the range of 100 to 500 nM.
In turn, `N#Cc1cn2c(NCc3c(F)ccc4c3CCO4)ncc(-c3ccc(CN4CCC(O)C4)cc3)c2n1` (centres unmarked) [Example 151, 5-(((5-fluoro-2,3-dihydrobenzofuran-4-yl)methyl)amino)-8-(4-((3-hydroxypyrrolidin-1-yl)methyl)phenyl)imidazo[1,2-c]pyrimidine-2-carbonitrile] gave an IC50 of under 100 nM.
The figure for `N#Cc1cn2c(NCc3c(F)ccc4c3CCO4)ncc(-c3cc[nH]c(=O)c3)c2n1` [Example 218, 5-(((5-fluoro-2,3-dihydrobenzofuran-4-yl)methyl)amino)-8-(2-oxo-1,2-dihydropyridin-4-yl)imidazo[1,2-c]pyrimidine-2-carbonitrile] is under 100 nM; for `COc1cc(C)c(-c2cnc(NCc3c(F)ccc4c3CCO4)n3cc(C(=O)O)nc23)cn1` [Example 6, 5-(((5-fluoro-2,3-dihydrobenzofuran-4-yl)methyl)amino)-8-(6-methoxy-4-methylpyridin-3-yl)imidazo[1,2-c]pyrimidine-2-carboxylic acid] it is 100 to 500 nM; for `N#Cc1cn2c(NCc3c(F)ccc4c3CCO4)ncc(-c3cnn4c3CCC4)c2n1` [Example 80, 8-(5,6-dihydro-4H-pyrrolo[1,2-b]pyrazol-3-yl)-5-(((5-fluoro-2,3-dihydrobenzofuran-4-yl)methyl)amino)imidazo[1,2-c]pyrimidine-2-carbonitrile] it is under 100 nM.
Under `CC(O)Cn1cc(-c2cnc(NCc3c(F)ccc4c3CCO4)n3cc(C#N)nc23)cn1` (centres unmarked) [Example 179, 5-(((5-fluoro-2,3-dihydrobenzofuran-4-yl)methyl)amino)-8-(1-(2-hydroxypropyl)-1H-pyrazol-4-yl)imidazo[1,2-c]pyrimidine-2-carbonitrile] stands under 100 nM; under `N#Cc1cn2c(NCc3c(F)ccc4c3CCO4)ncc(-c3cccnn3)c2n1` [Example 142, 5-(((5-fluoro-2,3-dihydrobenzofuran-4-yl)methyl)amino)-8-(pyridazin-3-yl)imidazo[1,2-c]pyrimidine-2-carbonitrile], under 100 nM.
Molecule `Cc1c(-c2cnc(NCc3c(F)ccc4c3CCO4)n3cc(C#N)nc23)cnc(CN(C)C)c1F` [Example 233, 8-(6-((dimethylamino)methyl)-5-fluoro-4-methylpyridin-3-yl)-5-(((5-fluoro-2,3-dihydrobenzofuran-4-yl)methyl)amino)imidazo[1,2-c]pyrimidine-2-carbonitrile] returned an IC50 of under 100 nM.
The figure for `N#Cc1cn2c(NCc3c(F)ccc4c3CCO4)ncc(-c3ccc(-c4nnn[nH]4)cc3)c2n1` [Example 190, 8-(4-(1H-tetrazol-5-yl)phenyl)-5-(((5-fluoro-2,3-dihydrobenzofuran-4-yl)methyl)amino)imidazo[1,2-c]pyrimidine-2-carbonitrile] is under 100 nM.
With `N#Cc1cn2c(NCc3c(F)ccc4c3CCO4)ncc(-c3ccc(C4CC4)nc3)c2n1` [Example 116, 8-(6-cyclopropylpyridin-3-yl)-5-(((5-fluoro-2,3-dihydrobenzofuran-4-yl)methyl)amino)imidazo[1,2-c]pyrimidine-2-carbonitrile], the concentration for half-maximal inhibition (IC50) is under 100 nM.
As for `Cn1nccc1-c1cnc(NCc2c(F)ccc3c2CCO3)n2cc(C#N)nc12` [Example 114, 5-(((5-fluoro-2,3-dihydrobenzofuran-4-yl)methyl)amino)-8-(1-methyl-1H-pyrazol-5-yl)imidazo[1,2-c]pyrimidine-2-carbonitrile], the IC50 was under 100 nM.
In turn, `CC(c1ccc(-c2cnc(NCc3c(F)ccc4c3CCO4)n3cc(C#N)nc23)cc1)N1CCCC1` (centres unmarked) [Example 90, 5-(((5-fluoro-2,3-dihydrobenzofuran-4-yl)methyl)amino)-8-(4-(1-(pyrrolidin-1-yl)ethyl)phenyl)imidazo[1,2-c]pyrimidine-2-carbonitrile] showed an IC50 of under 100 nM.
For the molecule `CN1CCN(C(=O)c2cc(-c3cnc(NCc4c(F)ccc5c4CCO5)n4cc(C#N)nc34)n(C)n2)CC1` [Example 229, 5-(((5-fluoro-2,3-dihydrobenzofuran-4-yl)methyl)amino)-8-(1-methyl-3-(4-methylpiperazine-1-carbonyl)-1H-pyrazol-5-yl)imidazo[1,2-c]pyrimidine-2-carbonitrile], the concentration for half-maximal inhibition (IC50) is under 100 nM.
`Cc1ccc(-c2cnc(NCc3c(F)ccc4c3CCO4)n3cc(C#N)nc23)c(C)n1` [Example 67, 8-(2,6-dimethylpyridin-3-yl)-5-(((5-fluoro-2,3-dihydrobenzofuran-4-yl)methyl)amino)imidazo[1,2-c]pyrimidine-2-carbonitrile] displayed a half-maximal inhibitory concentration (IC50) of under 100 nM.
Turning to `N#Cc1ccc(-c2cnc(NCc3c(F)ccc4c3CCO4)n3cc(C#N)nc23)cn1` [Example 128, 8-(6-cyanopyridin-3-yl)-5-(((5-fluoro-2,3-dihydrobenzofuran-4-yl)methyl)amino)imidazo[1,2-c]pyrimidine-2-carbonitrile], the half-maximal inhibitory concentration (IC50) is under 100 nM.
Under `COCCOc1ccc(-c2cnc(NCc3c(F)ccc4c3CCO4)n3cc(C#N)nc23)cc1` [Example 161, 5-(((5-fluoro-2,3-dihydrobenzofuran-4-yl)methyl)amino)-8-(4-(2-methoxyethoxy)phenyl)imidazo[1,2-c]pyrimidine-2-carbonitrile] stands under 100 nM; under `Cc1n[nH]cc1-c1cnc(NCc2c(F)ccc3c2CCO3)n2cc(C#N)nc12` [Example 79, 5-(((5-fluoro-2,3-dihydrobenzofuran-4-yl)methyl)amino)-8-(3-methyl-1H-pyrazol-4-yl)imidazo[1,2-c]pyrimidine-2-carbonitrile], under 100 nM.
Under `Cc1cc(CN(C)C)ncc1-c1cnc(NCc2c(F)ccc3c2CCO3)n2cc(C#N)nc12` [Example 195, 8-(6-((dimethylamino)methyl)-4-methylpyridin-3-yl)-5-(((5-fluoro-2,3-dihydrobenzofuran-4-yl)methyl)amino)imidazo[1,2-c]pyrimidine-2-carbonitrile] stands under 100 nM; under `Cc1ncncc1-c1cnc(NCc2c(F)ccc3c2CCO3)n2cc(C#N)nc12` [Example 110, 5-(((5-fluoro-2,3-dihydrobenzofuran-4-yl)methyl)amino)-8-(4-methylpyrimidin-5-yl)imidazo[1,2-c]pyrimidine-2-carbonitrile], under 100 nM.
Molecule `CN1CCOCC1c1ccc(-c2cnc(NCc3c(F)ccc4c3CCO4)n3cc(C#N)nc23)cc1` (centres unmarked) [Example 227, 5-(((5-fluoro-2,3-dihydrobenzofuran-4-yl)methyl)amino)-8-(4-(4-methylmorpholin-3-yl)phenyl)imidazo[1,2-c]pyrimidine-2-carbonitrile] displayed an IC50 of under 100 nM.
Under `Cn1nc(C#N)cc1-c1cnc(NCc2c(F)ccc3c2CCO3)n2cc(C#N)nc12` [Example 212, 8-(3-cyano-1-methyl-1H-pyrazol-5-yl)-5-(((5-fluoro-2,3-dihydrobenzofuran-4-yl)methyl)amino)imidazo[1,2-c]pyrimidine-2-carbonitrile] stands under 100 nM; under `Cc1ncccc1-c1cnc(NCc2c(F)ccc3c2CCO3)n2cc(C#N)nc12` [Example 105, 5-(((5-fluoro-2,3-dihydrobenzofuran-4-yl)methyl)amino)-8-(2-methylpyridin-3-yl)imidazo[1,2-c]pyrimidine-2-carbonitrile], under 100 nM; under `Cn1cccc(-c2cnc(NCc3c(F)ccc4c3CCO4)n3cc(C#N)nc23)c1=O` [Example 156, 5-(((5-fluoro-2,3-dihydrobenzofuran-4-yl)methyl)amino)-8-(1-methyl-2-oxo-1,2-dihydropyridin-3-yl)imidazo[1,2-c]pyrimidine-2-carbonitrile], 100 to 500 nM.
Under `Cc1cc(-c2cnc(NCc3c(F)ccc4c3CCO4)n3cc(C(N)=O)nc23)n(C)n1` [Example 11, 8-(1,3-dimethyl-1H-pyrazol-5-yl)-5-(((5-fluoro-2,3-dihydrobenzofuran-4-yl)methyl)amino)imidazo[1,2-c]pyrimidine-2-carboxamide] stands under 100 nM; under `Cn1nc(C(F)(F)F)cc1-c1cnc(NCc2c(F)ccc3c2CCO3)n2cc(C#N)nc12` [Example 111, 5-(((5-fluoro-2,3-dihydrobenzofuran-4-yl)methyl)amino)-8-(1-methyl-3-(trifluoromethyl)-1H-pyrazol-5-yl)imidazo[1,2-c]pyrimidine-2-carbonitrile], under 100 nM; under `CN(C)CCc1ccc(-c2cnc(NCc3c(F)ccc4c3CCO4)n3cc(C#N)nc23)cc1` [Example 163, 8-(4-(2-(dimethylamino)ethyl)phenyl)-5-(((5-fluoro-2,3-dihydrobenzofuran-4-yl)methyl)amino)imidazo[1,2-c]pyrimidine-2-carbonitrile], under 100 nM.

Values taken from patent publication US20240398811A1, “PRC2 INHIBITORS FOR USE IN TREATING BLOOD DISORDERS” (ORIC Pharmaceuticals, Inc., priority 2021, published 2024).
